pIC50: −log10 of the molar value.
What was measured:
human soluble ENPP1 [1] = biological target: T1, human soluble ENPP1 (Homo sapiens, UniProt P22413); assay: ENPP1 activity assay using p-Nitrophenyl-5′-TMP as a substrate; type: biochemical
T1 construct: 20 ng of human soluble ENPP1
T1 sequence (P22413 103-925 limits assumed): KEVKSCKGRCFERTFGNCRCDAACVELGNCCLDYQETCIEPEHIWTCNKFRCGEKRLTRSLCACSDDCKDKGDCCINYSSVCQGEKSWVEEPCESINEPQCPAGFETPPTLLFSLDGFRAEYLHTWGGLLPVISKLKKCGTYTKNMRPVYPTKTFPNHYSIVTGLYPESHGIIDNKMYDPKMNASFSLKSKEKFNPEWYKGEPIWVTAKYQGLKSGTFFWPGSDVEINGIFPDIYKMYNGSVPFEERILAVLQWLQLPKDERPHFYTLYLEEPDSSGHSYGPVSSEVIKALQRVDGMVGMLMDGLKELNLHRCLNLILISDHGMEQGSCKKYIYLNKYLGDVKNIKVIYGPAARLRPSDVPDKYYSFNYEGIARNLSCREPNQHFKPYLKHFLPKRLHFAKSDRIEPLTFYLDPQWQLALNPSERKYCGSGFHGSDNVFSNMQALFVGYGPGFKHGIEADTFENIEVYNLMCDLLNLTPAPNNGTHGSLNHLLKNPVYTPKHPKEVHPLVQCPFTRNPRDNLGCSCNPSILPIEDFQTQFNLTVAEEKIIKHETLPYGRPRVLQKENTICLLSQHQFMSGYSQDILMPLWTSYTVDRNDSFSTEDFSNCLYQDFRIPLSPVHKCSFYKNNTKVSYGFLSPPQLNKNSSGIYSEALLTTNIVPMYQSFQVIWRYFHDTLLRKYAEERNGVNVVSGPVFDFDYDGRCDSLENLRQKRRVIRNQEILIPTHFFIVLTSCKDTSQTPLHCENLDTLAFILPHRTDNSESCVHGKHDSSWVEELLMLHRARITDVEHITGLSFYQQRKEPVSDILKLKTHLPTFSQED
Procedure: ENPP1 is a transmembrane glycoprotein that hydrolyzes nucleotides and nucleotide derivatives with the formation of nucleotide-5′-monophosphates. ENPP1 hydrolyzes artificial phosphoric acid ester thymidine 5′monophosphate p-nitrophenyl ester (TMP-pNP) to nucleotide-5′-monophosphate and p-nitrophenol, which is a chromogenic product.
Load into a well with 20 ng of human soluble ENPP1 in 50 μL and incubate at room temperature with 25 μL inhibitor solution (4× Final Concentration) for 30 mins. Then, add 25 μL 2 mM TMP solution (2× Final Concentration) into the well, Incubate at RT for 1 hour.
(§1) The percent inhibition at each compound is calculated as follows: % inhibition=(ODMAX−ODCOMPOUND)/(ODMAX−ODMIN)*100. (MAX: absence of ENPP1 inhibitors control, MIN: blank control.)
The IC50 values for percent inhibition versus compound concentration were determined by fitting the inhibition curves using a four-parameter variable slope model in GraphPad Prism® 8.

human soluble ENPP1 [2] = biological target: T1, human soluble ENPP1; assay: ENPP1 activity assay using p-Nitrophenyl-5′-AMP as a substrate; type: biochemical
Procedure: AMP-pNP can be used as substrate of ENPP-1. Its hydrolysis products were nucleotide-5′-monophosphate and p-nitrophcnol, which is also a chromogenic product. The amount of p-nitrophenol product formed is measured using its absorbance at 405 nm, which is directly proportional to enzyme activity.
Load into a well with […] of human soluble ENPP1 in 50 μL and incubate at room temperature with 25 μL inhibitor solution (4× Final Concentration) for 30 mins prior adding 25 μL 3 mM AMP solution (2× Final Concentration) into the well, Incubate at RT for 1 hour. The amounts of released p-nitrophenolate were measured by reading OD value at 405 nm.
as §1
(§2) The IC50 values for percent inhibition versus compound concentration are determined by fitting the inhibition curves using a four-parameter variable slope model in GraphPad Prism® 8.

ENPP-1, MDA-MB-231 cells = biological target: T2, ENPP-1, MDA-MB-231 cells (Homo sapiens, UniProt P22413); assay: cell-based; conditions: for inhibition at 20 µM: MDA-MB-231, read-out: % Inhibition (at 20 μM)
T2 sequence (P22413 1-925): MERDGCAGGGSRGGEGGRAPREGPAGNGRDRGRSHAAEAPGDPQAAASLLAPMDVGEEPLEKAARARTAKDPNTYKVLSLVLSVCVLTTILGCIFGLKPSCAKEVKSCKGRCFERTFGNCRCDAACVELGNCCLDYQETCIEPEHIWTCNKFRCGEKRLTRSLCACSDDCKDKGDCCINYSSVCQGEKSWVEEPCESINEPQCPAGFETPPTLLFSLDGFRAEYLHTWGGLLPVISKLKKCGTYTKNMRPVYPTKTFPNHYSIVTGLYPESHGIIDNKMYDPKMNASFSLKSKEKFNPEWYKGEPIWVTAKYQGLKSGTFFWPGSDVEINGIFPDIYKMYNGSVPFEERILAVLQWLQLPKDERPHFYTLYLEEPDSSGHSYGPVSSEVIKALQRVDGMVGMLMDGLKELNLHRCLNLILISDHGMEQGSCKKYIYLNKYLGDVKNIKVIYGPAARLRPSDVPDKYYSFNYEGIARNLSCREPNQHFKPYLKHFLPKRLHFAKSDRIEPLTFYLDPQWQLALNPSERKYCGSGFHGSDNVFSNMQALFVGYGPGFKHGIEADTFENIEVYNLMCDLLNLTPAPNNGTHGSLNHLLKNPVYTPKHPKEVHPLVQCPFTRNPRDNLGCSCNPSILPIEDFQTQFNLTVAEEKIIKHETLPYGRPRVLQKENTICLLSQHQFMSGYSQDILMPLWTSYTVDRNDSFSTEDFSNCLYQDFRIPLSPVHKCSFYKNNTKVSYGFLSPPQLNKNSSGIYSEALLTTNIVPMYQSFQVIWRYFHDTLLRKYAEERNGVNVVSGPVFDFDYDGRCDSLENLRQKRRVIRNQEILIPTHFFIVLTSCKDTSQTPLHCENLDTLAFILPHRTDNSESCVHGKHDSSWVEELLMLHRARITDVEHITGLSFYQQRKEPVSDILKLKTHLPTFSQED
Procedure: ENPP-1 were mainly expressed on the surface of cell membrane where it hydrolytes 2′3′-cGAMP to generate 5′-GMP and 5′-AMP. ENPP-1 also has the ability to hydrolyzes artificial phosphoric acid ester TMP-pNP to nucleotide-5′-monophosphate and p-nitrophcnol there, which is a chromogenic product.
8 point of different concentrations of each inhibitor were prepared with the final assay concentrations starting at 20 μM. 3× series dilution by DMEM medium without FBS was applied. Prior to adding inhibitors, 75000 cells per well were incubated at 37° C., 5% CO2 in DMEM for 24 hours. After removing the supernatant medium, 50 μL inhibitor solution was added into each well with cultured cells and incubate at 37° C., 5% CO2 for 60 minutes.
as §2

[3] = substrate TMP-pNP, 20 ng human soluble ENPP1, Tris buffer pH 9.5, read-out: TMP-pNP (IC50)

Row | Structure (SMILES) | pIC50 (human soluble ENPP1 [1]) | pIC50 (human soluble ENPP1 [2]) | pIC50 (ENPP-1, MDA-MB-231 cells) | inhibition at 20 µM (ENPP-1, MDA-MB-231 cells) | pIC50 (human soluble ENPP1 [1]; [3])
1 | COc1ccc2c(ncc3[nH]c(=O)n(Cc4c(F)cc(C(=O)O)cc4F)c32)n1 [Compound 108, 3,5-difluoro-4-((7-methoxy-2-oxo-2,3-dihydro-1H-imidazo[4,5-c][1,8]naphthyridin-1-yl)methyl)benzoic acid] | 7.80 | 7.18 | 5.24 | 64% | –
2 | COc1ccc2c(ncc3nc(C)n(Cc4cc(F)c(P(=O)(O)O)cc4F)c32)n1 [Compound 125, (2,5-difluoro-4-((7-methoxy-2-methyl-1H-imidazo[4,5-c][1,8]naphthyridin-1-yl)methyl)phenyl)phosphonic acid] | 8.14 | 7.68 | 8.57 | 82% | –
3 | COc1ccc2c(n1)nc(C)c1[nH]c(=O)n(Cc3c(F)cc(S(N)(=O)=O)cc3F)c12 [Compound 113, 3,5-difluoro-4-((7-methoxy-4-methyl-2-oxo-2,3-dihydro-1H-imidazo[4,5-c][1,8]naphthyridin-1-yl)methyl)benzenesulfonamide] | – | 8.30 | 6.60 | 72% | 8.96
4 | COc1ccc2c(ncc3[nH]c(=O)n(Cc4c(F)cc(B(O)O)cc4F)c32)n1 [Compound 111, (3,5-difluoro-4-((7-methoxy-2-oxo-2,3-dihydro-1H-imidazo[4,5-c][1,8]naphthyridin-1-yl)methyl)phenyl)boronic acid] | – | 7.68 | 9.51 | 80% | 8.13
5 | COc1ccc2c(ncc3ncn(Cc4ccc(S(N)(=O)=O)c(OC)c4)c32)n1 [Compound 64, 2-methoxy-4-((7-methoxy-1H-imidazo[4,5-c][1,8]naphthyridin-1-yl)methyl)benzenesulfonamide] | 8.55 | 8.05 | 5.33 | 68% | –
6 | COc1ccc2c(n1)nc(C)c1nc(C)n(Cc3cc(F)c(S(N)(=O)=O)cc3F)c12 [Compound 90, 2,5-difluoro-4-((7-methoxy-2,4-dimethyl-1H-imidazo[4,5-c][1,8]naphthyridin-1-yl)methyl)benzenesulfonamide] | 8.62 | 8.11 | 6.01 | 74% | –
7 | COc1ccc2c(n1)nc(C)c1nnn(Cc3ccc(S(N)(=O)=O)cn3)c12 [Compound 136, 6-((7-methoxy-4-methyl-1H-[1,2,3]triazolo[4,5-c][1,8]naphthyridin-1-yl)methyl)pyridine-3-sulfonamide] | 8.13 | 7.68 | 9.51 | 80% | –
8 | COc1ccc2c(n1)nc(C)c1nc(C)n(Cc3ncc(S(N)(=O)=O)cn3)c12 [Compound 91a, 2-((7-methoxy-2,4-dimethyl-1H-imidazo[4,5-c][1,8]naphthyridin-1-yl)methyl)pyrimidine-5-sulfonamide] | – | 6.49 | < 5.17 | 53% | 7.08
9 | COc1ccc2c(ncc3ncn(Cc4ccc(S(N)(=O)=O)cc4C#N)c32)n1 [Compound 69, 3-cyano-4-((7-methoxy-1H-imidazo[4,5-c][1,8]naphthyridin-1-yl)methyl)benzenesulfonamide] | 9.17 | 8.68 | 6.29 | 79% | –
10 | COc1ccc2c(ncc3[nH]c(=O)n(CC4CC(OS(N)(=O)=O)C4)c32)n1 (stereo not drawn) [Compound 97, 3-((7-methoxy-2-oxo-2,3-dihydro-1H-imidazo[4,5-c][1,8]naphthyridin-1-yl)methyl)cyclobutyl sulfamate] | 9.25 | 8.96 | 6.09 | 78% | –
11 | COc1ccc2c(n1)nc(C)c1ncn(Cc3ccc(S(N)(=O)=O)c(F)c3)c12 [Compound 88, 2-fluoro-4-((7-methoxy-4-methyl-1H-imidazo[4,5-c][1,8]naphthyridin-1-yl)methyl)benzenesulfonamide] | 8.40 | 7.92 | 5.66 | 81% | –
12 | COc1ccc2c(ncc3ccn(Cc4ccc(S(N)(=O)=O)cc4)c32)n1 [Compound 117, 4-((7-methoxy-1H-pyrrolo[3,2-c][1,8]naphthyridin-1-yl)methyl)benzenesulfonamide] | 8.09 | 7.47 | 4.80 | 16% | –
13 | COc1ccc2c(ncc3[nH]c(=O)n(Cc4c(F)cc(S(=O)(=O)NC(C)=O)cc4F)c32)n1 [Compound 104, sodium acetyl((3,5-difluoro-4-((7-methoxy-2-oxo-2,3-dihydro-1H-imidazo[4,5-c][1,8]naphthyridin-1-yl)methyl)phenyl)sulfonyl)amide] | 8.05 | 7.96 | 5.47 | 72% | –
14 | COc1ccc2c(ncc3nc(CC(N)=O)n(Cc4ccc(S(N)(=O)=O)c(F)c4)c32)n1 [Compound 84, 2-(1-(3-fluoro-4-sulfamoylbenzyl)-7-methoxy-1H-imidazo[4,5-c][1,8]naphthyridin-2-yl)acetamide] | – | 8.08 | 5.60 | 76% | 8.46
15 | COc1ccc2c(ncc3nc(C)n(Cc4ccc(S(=O)(=O)NC(C)=O)cn4)c32)n1 [Compound 77, N-((6-((7-methoxy-2-methyl-1H-imidazo[4,5-c][1,8]naphthyridin-1-yl)methyl)pyridin-3-yl)sulfonyl)acetamide] | 8.07 | 7.82 | 5.32 | 65% | –

Reference: US11673889B2, “Substituted imidazo[4,5-c][1,8]naphthyridines as phosphodiesterase inhibitors” (Nanjing Zhengxiang Pharmaceuticals Co., Ltd., priority 2019, dated 2023)
